Paper PMC13198257, “An aerosolized dual-action autotaxin inhibitor-PPARγ agonist for the treatment of pulmonary fibrosis” (Cell Reports Medicine, 2026)
Entries after “also recorded” stand apart in the source; their conditions may differ.

Experiments:
[1] = system: choline oxidase and horseradish peroxidase; assay: Interference with the 2nd and 3rd reaction of the Amplex Red assay; format: biochemical
Description: (§1) ATX inhibitory activity in vitro of examined compounds was assessed with the Amplex Red assay,[32]^,[35]^,[36] as recently published in detail.[37] The assay was done in Amplex Red Assay buffer (Tris 50 mM, CaCl2 5 mM, pH 8). Briefly, 50 μL of increasing concentrations of each compound were placed in separate wells of a black 96-well plate. […] 50 μL of the LPC-containing assay buffer (200 μM) were added to the wells and incubated for 30 min at 37°C to allow the enzyme to initially interact with its substrate. 50 μL of the detection mix (Amplex Red 200 μM, choline oxidase 0.4 U/mL, horseradish peroxidase 4 U/mL) were added to the plate wells. Fluorescence was measured in a Tecan M200 Fluorimeter using excitation at 530 nm and reading at 590 nm, every 5 min for 30 min. The velocity of the reaction and the remaining ATX activity were calculated at the linear phase of the reaction. Dose-response inhibition graphs were plotted with GraphPad Software.
Figure S3. Kinetic analysis of ATX inhibition. Related to Figures 3 and 4
(B) Kinetics for the second (oxidation of choline catalysed by choline oxidase) and third reaction (the conversion of the
Amplex substrate to the fluorescent resorufin catalysed by horseradish peroxidase, HRP) of the Amplex Red Lyso-
phospholipase D assay for representative compounds (TGZ, 4, 5 and EL244). The first reaction includes the conversion of
LPC to LPA catalysed by ATX.
Kinetic graphs are indicative of three technical replicates. […]

[2] = Cytotoxicity in HepG2 hepatocytes; format: cell-based; details: human, HepG2 cells
[3] = molecular target: T1, ATX (Homo sapiens, UniProt Q13822); assay: Mode of ATX inhibition, Lineweaver-Burk plots (various LPC concentrations); format: biochemical
T1 construct: purchased Sino Biological 11308-H07H
Description: To determine the mode of inhibition of ATX, various concentrations of TGZ, compound 5 and EL244 were tested against various LPC concentrations. Specifically, TGZ was tested against 6.25, 12.5, 25, 50 and 100 μM LPC, compound 5 was tested against 3.125, 6.25, 12.5, 25, 50 and 100 μM LPC, while EL244 was tested against 25, 50, 100 and 150 μM LPC. Lineweaver–Burk graphs depicting the reciprocal of velocity (1/V) against the reciprocal of substrate concentration (1/S) were plotted with GraphPad Software.

[4] = AMP membrane permeability; format: in vitro ADME; details: 10 μΜ
[5] = system: ATX activity in serum; assay: TOOS assay: ex vivo lyso-PLD (ATX) activity in serum with 2 mM exogenous LPC; format: biochemical
Description: ATX inhibitory activity ex vivo of examined compounds was assessed via the colorimetric TOOS assay.[32]^,[35]^,[36] The assay was done in Lyso-PLD buffer (100 mM Tris-Cl, pH 8, 500 mM NaCl, 5 mM MgCl2, 5 mM CaCl2). A mix of Lyso-PLD buffer and serum (10:1) was prepared. LPC 16:0 was added to this mix at a final concentration of 2 mM. Increasing concentrations of compounds and a choline standard curve (0–100 μM) were prepared using the Lyso-PLD buffer/serum/LPC mix and 100 μL of these were placed in separate wells of a 96-well plate, followed by a 5 h incubation at 37°C. 100 μL of color mix (TOOS 0.3 mM, 4-AAP 0.5 mM, choline oxidase 2 U/mL, HRP 7.95 U/mL in Lyso-PLD buffer) were added to each well. Color was measured at 550 nm using an Optimax spectrophotometer. Background was subtracted from all values to account for the endogenous LPC and choline in the serum. Produced choline levels were calculated from the choline standard curve and indicate the amount of substrate (LPC) that had been consumed in each well corresponding to Lyso-PLD activity.

[6] = Mouse metabolic clearance and half-life in vitro
[7] = molecular target: T1, ATX; assay: Amplex Red assay: ATX inhibitory activity in vitro; format: biochemical; details: in vitro; for IC50: Amplex Red assay
Description: as §1

[8] = system: BLM-induced pulmonary fibrosis; assay: BLM-induced pulmonary fibrosis model, inhaled drug; format: in vivo, C57Bl/6 mice
From the text: BLM-induced pulmonary fibrosis was induced via the oropharyngeal aspiration of BLM (0.8 U/Kg).[54]^,[55]^,[141] The dose and route of administration have been selected following extensive local testing to minimise lethality while preserving a solid and reproducible fibrotic profile. Readout assays include weight and overall health status, pulmonary oedema and inflammation, collagen levels determination (soluble in BALFs, Q-RT-PCR and histology in lung tissue), lung histology with specialised stainings (Fast green/picrosirius red), as well as the measurement of respiratory functions (flexiVent, SQIREQ); a detailed protocol is publicly available at protocols.io.
Drug inhalation of compound 5 and EL244 to conscious, softly restrained mice was performed using the inExpose system (Scireq).[55] Compound 5 and EL244 were diluted in Kolliphor (15% and 10%, respectively) to final concentrations of 6.5 and 9.02 mg/mL, respectively. Volumes of 1 mL (for 5) and 0.6 mL (for EL244) were aerosolized over 10 and 15 min, respectively in groups of 6 mice, corresponding to a final estimated dose of 15mg/Kg per mouse. Control groups received an aerosolized solution of Kolliphor (10–15%) in saline.

[9] = inhaled 15 mg/kg b.i.d., therapeutic mode from 7 days post-BLM
[10] = inhaled 15 mg/kg o.d., prophylactic mode
[11] = inhaled 15 mg/kg o.d., therapeutic mode from day 7 post-BLM

With `O=C1NC(=O)C(Cc2ccc(OCCN3CCN(C(=O)OCc4cc(Cl)cc(Cl)c4)CC3)cc2)S1` (stereo not shown) [Compound 5, 3,5-dichlorobenzyl4-(2-(4-((2,4-dioxothiazolidin-5-yl)methyl)phenoxy)ethyl)piperazine-1-carboxylate] the “Interference on the 2nd and 3rd steps of the Amplex Red assay” value [1] was “Minimal interference; also recorded: not involved at all in the second and third reaction”, the CC50 [2] was 90.3 µM and the “Mode of ATX inhibition” value [3] was “non-competitive”. The AMP [4] was 3.7e-06 cm/s, the “lyso-PLD (ATX) inhibition in serum” value [5] was “dose-dependent effect” and the half-life at 0.1 μM [6] was 21 min. The IC50 [7] was 0.29 µM, the BALF inflammatory cells [8, 9] was “decreased inflammatory cells” and the “BALF total protein (vascular leak, pulmonary edema)” value [8, 9] was “decreased total protein levels”. For the same molecule, the “Decrease of BALF soluble collagen” value [8, 9] was “did not reach statistical significance”, the “Decrease of lung tissue Col1a1 mRNA” value [8, 9] was “did not reach statistical significance” and the “Histology (H&E, fast green/Sirius red)” value [8, 9] was “fewer fibrotic regions and decreased collagen deposition”. For the same molecule, the “Respiratory functions (Cst, Crs, A)” value [8, 9] was “efficiently attenuated the BLM-induced impairment of respiratory functions”.
With `O=C1NC(=O)C(Cc2ccc(OCCC3CCN(C(=O)OCc4cc(Cl)cc(Cl)c4)CC3)cc2)S1` (stereo not shown) [EL244, 3,5-dichlorobenzyl 4-(2-(4-((2,4-dioxothiazolidin-5-yl)methyl)phenoxy)ethyl)piperidine-1-carboxylate] the “Interference on the 2nd and 3rd steps of the Amplex Red assay” value [1] was “not involved at all in the second and third reaction”, the CC50 [2] was 81.2 µM and the “Mode of ATX inhibition” value [3] was “competitive”. For the same molecule, the AMP [4] was 8e-07 cm/s, the “lyso-PLD (ATX) inhibition in serum” value [5] was “Improved lyso-PLD inhibition” and the half-life at 0.1 μM [6] was 61 min. The microsomal CLint at 0.1 μM [6] was 114 µL/min/mg, the IC50 [7] was 0.05 µM and the “ATX inhibitory effect, fold better than 5” value [7] was 5 fold. For the same molecule, the “ATX inhibitory effect, fold better than GLPG1690” value [7] was 3 fold, the “ATX inhibitory effect, fold better than TGZ” value [7] was 10 fold and the “PPARγ target gene mRNA in lung tissue (RT-qPCR)” value ([8]; BLM mice, inhaled EL244) was “marginal increases”. For the same molecule, the BALF soluble collagen [8, 10] was “significantly reduced”, the Histology [8, 10] was “attenuated collagen deposition and reduced fibrotic regions” and the “Inflammation (BALF inflammatory cells)” value [8, 10] was “markedly reduced”. For the same molecule, the “Lung tissue Col1a1 mRNA” value [8, 10] was “significantly reduced”, the “Pulmonary edema (BALF total protein)” value [8, 10] was “markedly reduced” and the Respiratory functions ([8]; inhaled 15 mg/kg o.d., prophylactic mode, 15 days from one day before BLM) was “significantly improved respiratory functions”. The BALF soluble collagen [8, 11] was “significantly reducing”, the “Effect on inflammation (BALF inflammatory cells)” value [8, 11] was “did not reach statistical significance” and the Histopathology [8, 11] was “reduced collagen deposition and fewer and smaller fibrotic regions”. The “Lung tissue Col1a1 expression” value [8, 11] was “significantly reducing”, the Respiratory functions [8, 11] was “significantly restored all assessed respiratory functions” and the “Vascular permeability (BALF total protein)” value [8, 11] was “reduced vascular permeability”.
